Laboratory results reported in the supplement of paper PMC10307832.

Tests used:
Test in all cases: relative viability (nuclei count vs DMSO), 5 days (fraction); higher = more cells survive
[1] = test system: NCI-H2347
Method in brief: (§1)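 Relative viability divides the nuclei count in treated wells by that in vehicle wells. Lung cancer cell lines were seeded in 1536-well plates, dosed by pin tool the next day, and fixed and stained after 5 days in one step with final 0.05% Triton X-100, 1% formaldehyde and 1 ug/ml Hoechst. Dosing was a single drug or a fixed anchor-drug dose plus five library-drug doses (not always all listed) in √10 steps, and values are medians of duplicate plates imaged at 4×.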

[2] = test system: NCI-H596
Method in brief: as §1

[3] = test system: HCC-78
Method in brief: as §1

[4] = test system: HCC-366
Method in brief: as §1

[5] = test system: ChaGo-K-1
Method in brief: as §1

[6] = test system: NCI-H1355
Method in brief: as §1

[7] = test system: NCI-H1734
Method in brief: as §1

[8] = test system: RERF-LC-KJ
Method in brief: as §1

[9] = test system: CAL-12T
Method in brief: as §1

[10] = test system: EMC-BAC-2
Method in brief: as §1

[11] = test system: NCI-H2085
Method in brief: as §1

[12] = test system: NCI-H2405
Method in brief: as §1

[13] = test system: HOP-62
Method in brief: as §1

[14] = test system: PC-14
Method in brief: as §1

[15] = test system: NCI-H838
Method in brief: as §1

[16] = test system: NCI-H2228
Method in brief: as §1

[17] = test system: NCI-H1993
Method in brief: as §1

[18] = test system: LK-2
Method in brief: as §1

[19] = test system: LC-2-ad
Method in brief: as §1

[20] = test system: NCI-H2009
Method in brief: as §1

[21] = test system: NCI-H3122
Method in brief: as §1

[22] = test system: SW 1573
Method in brief: as §1

[23] = test system: SK-MES-1
Method in brief: as §1

SMILES: O=c1[nH]c2ccccc2n1C1CCN(CCCC(c2ccc(F)cc2)c2ccc(F)cc2)CC1 [Pimozide] + CC(=O)Nc1cccc(-n2c(=O)n(C3CC3)c(=O)c3c(Nc4ccc(I)cc4F)n(C)c(=O)c(C)c32)c1 [Trametinib] (partner 0.02 µM)
- relative viability ([1]; first compound 0.08 µM): 0.288
- relative viability ([1]; first compound 0.253 µM): 0.307
- relative viability ([1]; first compound 0.8 µM): 0.287
- relative viability ([1]; first compound 2.53 µM): 0.278
- relative viability ([1]; first compound 8 µM): 0.285
- relative viability ([2]; first compound 0.08 µM): 0.83
- relative viability ([2]; first compound 0.253 µM): 0.763
- relative viability ([2]; first compound 0.8 µM): 0.738
- relative viability ([2]; first compound 2.53 µM): 0.736
- relative viability ([2]; first compound 8 µM): 0.772
- relative viability ([3]; first compound 0.08 µM): 0.704
- relative viability ([3]; first compound 0.8 µM): 0.688
- relative viability ([3]; first compound 2.53 µM): 0.776
- relative viability ([3]; first compound 8 µM): 0.757
- relative viability ([4]; first compound 0.08 µM): 0.32
- relative viability ([4]; first compound 0.253 µM): 0.282
- relative viability ([4]; first compound 0.8 µM): 0.361
- relative viability ([4]; first compound 2.53 µM): 0.298
- relative viability ([4]; first compound 8 µM): 0.34
- relative viability ([5]; first compound 0.08 µM): 0.873
- relative viability ([5]; first compound 0.253 µM): 0.871
- relative viability ([5]; first compound 0.8 µM): 0.851
- relative viability ([5]; first compound 2.53 µM): 0.872
- relative viability ([5]; first compound 8 µM): 0.874
- relative viability ([6]; first compound 0.08 µM): 0.382
- relative viability ([6]; first compound 0.253 µM): 0.428
- relative viability ([6]; first compound 0.8 µM): 0.411
- relative viability ([6]; first compound 2.53 µM): 0.39
- relative viability ([6]; first compound 8 µM): 0.454
- relative viability ([7]; first compound 0.08 µM): 0.685
- relative viability ([7]; first compound 0.253 µM): 0.697
- relative viability ([7]; first compound 0.8 µM): 0.734
- relative viability ([7]; first compound 2.53 µM): 0.657
- relative viability ([7]; first compound 8 µM): 0.673
- relative viability ([8]; first compound 0.08 µM): 0.851
- relative viability ([8]; first compound 0.253 µM): 0.778
- relative viability ([8]; first compound 0.8 µM): 0.742
- relative viability ([8]; first compound 2.53 µM): 0.764
- relative viability ([8]; first compound 8 µM): 0.609
- relative viability ([9]; first compound 0.08 µM): 0.326
- relative viability ([9]; first compound 0.253 µM): 0.291
- relative viability ([9]; first compound 0.8 µM): 0.34
- relative viability ([9]; first compound 2.53 µM): 0.272
- relative viability ([9]; first compound 8 µM): 0.251
- relative viability ([10]; first compound 0.08 µM): 0.814
- relative viability ([10]; first compound 0.253 µM): 0.891
- relative viability ([10]; first compound 0.8 µM): 0.792
- relative viability ([10]; first compound 2.53 µM): 0.815
- relative viability ([10]; first compound 8 µM): 0.802
- relative viability ([11]; first compound 0.08 µM): 0.659
- relative viability ([11]; first compound 0.253 µM): 0.625
- relative viability ([11]; first compound 0.8 µM): 0.583
- relative viability ([11]; first compound 2.53 µM): 0.404
- relative viability ([11]; first compound 8 µM): 0.399
- relative viability ([12]; first compound 0.08 µM): 0.606
- relative viability ([12]; first compound 0.253 µM): 0.65
- relative viability ([12]; first compound 0.8 µM): 0.621
- relative viability ([12]; first compound 2.53 µM): 0.491
- relative viability ([12]; first compound 8 µM): 0.36
- relative viability ([13]; first compound 0.08 µM): 0.362
- relative viability ([13]; first compound 0.253 µM): 0.347
- relative viability ([13]; first compound 2.53 µM): 0.328
- relative viability ([13]; first compound 8 µM): 0.389
- relative viability ([14]; first compound 0.253 µM): 0.622
- relative viability ([14]; first compound 0.8 µM): 0.686
- relative viability ([14]; first compound 2.53 µM): 0.607
- relative viability ([14]; first compound 8 µM): 0.62
- relative viability ([15]; first compound 0.08 µM): 0.536
- relative viability ([15]; first compound 0.253 µM): 0.561
- relative viability ([15]; first compound 0.8 µM): 0.482
- relative viability ([15]; first compound 2.53 µM): 0.528
- relative viability ([15]; first compound 8 µM): 0.571
- relative viability ([16]; first compound 0.08 µM): 0.514
- relative viability ([16]; first compound 0.253 µM): 0.475
- relative viability ([16]; first compound 0.8 µM): 0.522
- relative viability ([16]; first compound 2.53 µM): 0.418
- relative viability ([16]; first compound 8 µM): 0.167
- relative viability ([17]; first compound 0.08 µM): 0.561
- relative viability ([17]; first compound 0.253 µM): 0.495
- relative viability ([17]; first compound 0.8 µM): 0.596
- relative viability ([17]; first compound 2.53 µM): 0.484
- relative viability ([17]; first compound 8 µM): 0.553
- relative viability ([18]; first compound 0.08 µM): 0.717
- relative viability ([18]; first compound 0.253 µM): 0.826
- relative viability ([18]; first compound 0.8 µM): 0.749
- relative viability ([18]; first compound 2.53 µM): 0.492
- relative viability ([18]; first compound 8 µM): 0.727
- relative viability ([19]; first compound 0.08 µM): 0.886
- relative viability ([19]; first compound 0.253 µM): 0.819
- relative viability ([19]; first compound 0.8 µM): 0.893
- relative viability ([19]; first compound 2.53 µM): 0.904
- relative viability ([19]; first compound 8 µM): 0.897
- relative viability ([20]; first compound 0.08 µM): 0.256
- relative viability ([20]; first compound 0.253 µM): 0.276
- relative viability ([20]; first compound 0.8 µM): 0.284
- relative viability ([20]; first compound 2.53 µM): 0.321
- relative viability ([20]; first compound 8 µM): 0.225
- relative viability ([21]; first compound 0.08 µM): 0.239
- relative viability ([21]; first compound 0.253 µM): 0.227
- relative viability ([21]; first compound 0.8 µM): 0.216
- relative viability ([21]; first compound 2.53 µM): 0.252
- relative viability ([21]; first compound 8 µM): 0.188
- relative viability ([22]; first compound 0.08 µM): 0.645
- relative viability ([22]; first compound 0.253 µM): 0.448
- relative viability ([22]; first compound 0.8 µM): 0.394
- relative viability ([22]; first compound 2.53 µM): 0.308
- relative viability ([22]; first compound 8 µM): 0.344
- relative viability ([23]; first compound 0.08 µM): 0.533
- relative viability ([23]; first compound 0.253 µM): 0.517
- relative viability ([23]; first compound 0.8 µM): 0.508
- relative viability ([23]; first compound 2.53 µM): 0.744
- relative viability ([23]; first compound 8 µM): 0.441
